Molecular target: T1, human KSP motor domain (KSP(367H)) (Homo sapiens, UniProt P52732)
T1 construct: were used to amplify the motor domain and the neck linker region; made in house; host or cells: E. coli BL21 (DE3), vector pRSETa
T1 sequence (P52732 1-367): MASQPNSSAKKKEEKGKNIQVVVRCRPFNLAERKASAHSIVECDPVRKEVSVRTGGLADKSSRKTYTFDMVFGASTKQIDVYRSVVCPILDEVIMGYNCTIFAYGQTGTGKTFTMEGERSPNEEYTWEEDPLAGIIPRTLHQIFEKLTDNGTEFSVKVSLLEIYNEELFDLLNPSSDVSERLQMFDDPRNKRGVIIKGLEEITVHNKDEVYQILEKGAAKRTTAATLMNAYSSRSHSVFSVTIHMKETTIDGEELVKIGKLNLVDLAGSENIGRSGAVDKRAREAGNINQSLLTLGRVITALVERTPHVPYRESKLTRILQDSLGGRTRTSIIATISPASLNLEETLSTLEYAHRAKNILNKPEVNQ
Experiment: Kinesin ATPase in vitro assay
Assay type: biochemical
Conditions: kinesin motor domain incubated with microtubules, 1 mM ATP and compound at 23° C.; free phosphate by quinaldine red/ammonium molybdate, absorbance 540 nm
From the text: I. Kinesin ATPase In Vitro Assay
Cloning and Expression of Human Poly-Histidine Tagged KSP Motor Domain (KSP(367H))
Plasmids for the expression of the human KSP motor domain construct were cloned by PCR using a pBluescript full length human KSP construct (Blangy et al., Cell, vol. 83, pp 1159-1169, 1995) as a template. The N-terminal primer 5′-[…] (SEQ.ID.NO.: 1) and the C-terminal primer 5′-[…] […] (SEQ.ID.NO.: 2)were used to amplify the motor domain and the neck linker region. The PCR products were digested with AseI and XhoI, ligated into the NdeI/XhoI digestion product of pRSETa (Invitrogen) and transformed into E. coli BL21 (DE3).
Cells were grown at 37° C. to an OD600 of 0.5. […]
The kinesin motor domain is incubated with microtubules, 1 mM ATP (1:1 MgCl2: Na-ATP), and compound at 23° C. in buffer containing 80 mM K-HEPES (pH 7.0), 1 mM EGTA, 1 mM DTT, 1 mM MgCl2, and 50 mM KCl. […] Free phosphate from the ATP hydrolysis reaction is measured via a quinaldine red/ammonium molybdate assay by adding 150 μl of quench C buffer containing a 2:1 ratio of quench A:quench B. Quench A contains 0.1 mg/ml quinaldine red and 0.14% polyvinyl alcohol; quench B contains 12.3 mM ammonium molybdate tetrahydrate in 1.15 M sulfuric acid. The reaction is incubated for 10 minutes at 23° C., and the absorbance of the phospho-molybdate complex is measured at 540 nm.

Work on `CC(=O)N1N=C(c2cc(F)ccc2F)CC1(CC[Si](C)(C)O)c1ccccc1` (centres unmarked) [Compound 1-5, {2-[1-acetyl-3-(2,5-difluorophenyl)-5-phenyl-4,5-dihydro-1H-pyrazol-5-yl]ethyl}(dimethyl)silanol] yielded an IC50 of at most 50 µM.

Compound `CC(=O)N1CCN(CCC[C@@]2(c3ccccc3)CC(c3cc([Si](C)(C)C)ccc3F)=NN2C(C)=O)CC1` [Compound 3-8, 1-acetyl-4-(3-{(5S)-1-acetyl-3-[2-fluoro-5-(trimethylsilyl)phenyl]-5-phenyl-4,5-dihydro-1H-pyrazol-5-yl}propyl)piperazine] has an IC50 of at most 50 µM.
